{"source": "patent US12569571B2", "about": "“Salt responsive nanogels and nanoparticles” (HOWARD UNIVERSITY, priority 2016, dated 2026)", "origin": "cited, not measured here", "conditions": "studies have shown"}
{"smiles": "CNC", "note": "[dimethylamine]", "values": [{"measurement": "pKa (apparent pKa for PEI)", "value": "about 10"}]}
